# Experiments:
# Conditions in all cases: 72 h
# Calu-3 [1] = experiment: cell viability relative to DMSO; higher = less toxic
# Caco-2 [2] = experiment: as above
# Vero E6 [3] = experiment: as above
# U2OS [4] = experiment: as above
# HepG2 [5] = experiment: as above
# Calu-3 [6] = experiment: drug sensitivity score (DSS) for viability; higher = more toxic; extreme values may be limits of the assay
# Caco-2 [7] = experiment: as above
# Vero E6 [8] = experiment: as above
# U2OS [9] = experiment: as above
# HepG2 [10] = experiment: as above
# Calu-3 [11] = experiment: relative viability EC50 (midpoint between 100% and the lowest measured viability); higher = less toxic
# Caco-2 [12] = experiment: as above
# HepG2 [13] = experiment: as above
# U2OS [14] = experiment: as above
# Vero E6 [15] = experiment: as above
SMILES,cell viability (Calu-3 [1]; 1 nM) [%],cell viability (Calu-3 [1]; 10 nM) [%],cell viability (Calu-3 [1]; 100 nM) [%],cell viability (Calu-3 [1]; 1000 nM) [%],cell viability (Calu-3 [1]; 10000 nM) [%],cell viability (Caco-2 [2]; 1 nM) [%],cell viability (Caco-2 [2]; 10 nM) [%],cell viability (Caco-2 [2]; 100 nM) [%],cell viability (Caco-2 [2]; 1000 nM) [%],cell viability (Caco-2 [2]; 10000 nM) [%],cell viability (Vero E6 [3]; 1 nM) [%],cell viability (Vero E6 [3]; 10 nM) [%],cell viability (Vero E6 [3]; 100 nM) [%],cell viability (Vero E6 [3]; 1000 nM) [%],cell viability (Vero E6 [3]; 10000 nM) [%],cell viability (U2OS [4]; 1 nM) [%],cell viability (U2OS [4]; 10 nM) [%],cell viability (U2OS [4]; 100 nM) [%],cell viability (U2OS [4]; 1000 nM) [%],cell viability (U2OS [4]; 10000 nM) [%],cell viability (HepG2 [5]; 1 nM) [%],cell viability (HepG2 [5]; 10 nM) [%],cell viability (HepG2 [5]; 100 nM) [%],cell viability (HepG2 [5]; 1000 nM) [%],cell viability (HepG2 [5]; 10000 nM) [%],drug sensitivity score (Calu-3 [6]),drug sensitivity score (Caco-2 [7]),drug sensitivity score (Vero E6 [8]),drug sensitivity score (U2OS [9]),drug sensitivity score (HepG2 [10]),relative viability EC50 (Calu-3 [11]) [µM],relative viability EC50 (Caco-2 [12]) [µM],relative viability EC50 (HepG2 [13]) [µM],relative viability EC50 (U2OS [14]) [µM],relative viability EC50 (Vero E6 [15]) [µM]
CCn1nc(C2CCN(C(=O)CCO)CC2)nc1-c1cnc(N)c(-c2nnc(C(C)(C)C)o2)n1 [AZD8835],102,96.3,99.1,81.4,41.8,94.1,93.6,91.3,86.6,64.3,96.9,97.9,93.7,96,70,102,97.5,99,85.2,70.5,101,101,95.1,78.7,64,5.9,3.2,2,2.8,4.1,1.35,,,,
c1ccc2nc(C3=NCCN3)cnc2c1 [BU-239],101,106,95.4,112,99.8,97.1,101,102,102,100,,,,,,,,,,,99.2,104,112,104,101,0,0,,,0,> 10,> 10,> 10,,
CCCCCCNC(=O)n1cc(F)c(=O)[nH]c1=O [Carmofur],89.8,102,100,101,93.8,106,92,94.1,91.7,74.1,104,99.4,102,102,67.1,103,96.5,102,94.8,55.9,108,104,102,85.5,63.6,0,1.5,1.4,3.1,3.7,> 10,,,,
C[C@@H]1C[C@H]2[C@@H]3CCC4=CC(=O)C=C[C@]4(C)[C@@]3(F)[C@@H](O)C[C@]2(C)[C@@]1(O)C(=O)COP(=O)(O)O [DEXAMETHASONE SODIUM PHOSPHATE],106,107,89.9,105,90,95.9,88,99.7,96.2,97.5,,,,,,99.8,98.8,97.7,95.8,95.7,111,108,100,97.8,93.6,0,0,,0,0,> 10,> 10,> 10,> 10,
C[C@H](N)C(=O)O [L-alanine],102,94.3,99.6,106,84.2,102,96.6,99.4,106,105,104,103,106,98.9,104,94.5,102,104,105,96.3,,,,,,0.2,0,0,0,,> 10,> 10,,> 10,> 10
CN(C)CCOc1cc(-c2cn[nH]c2)ccc1NC(=O)C1COc2ccccc2O1 (stereo unspecified) [SR-3677],102,93.4,99.4,148,134,100,95.6,105,105,94.9,96.5,95.9,95.7,81.4,68.8,99.8,101,95.6,98.6,79.6,99.3,108,101,86,88.4,0,0,3.3,0.8,1.1,> 10,> 10,> 10,> 10,
COc1cc2ncnc(Nc3ccc(O)c(Br)c3)c2cc1OC [WHI-P154],106,103,94.3,72.6,28.6,95.8,96.6,89.8,83.6,68.8,101,98.4,82.8,68,35.6,103,101,99.5,93.1,86.3,108,102,101,89.7,70,7.2,3.4,8.2,0.4,2.7,1.29,,,> 10,0.642
